Measurements published in ChEMBL document CHEMBL1153185, “Two novel neo-clerodane diterpenoids from Scutellaria barbata” (Bioorg Med Chem Lett, 2010).
Where a name gives a salt, the structure may show the parent alone. Active and inactive are the calls of the source. No cut-off for these calls is given here.

Key:
Format in all cases: functional, cell-based
HL-60 = experiment: Cytotoxicity against human HL60 cells by MTT assay
MCF7 = experiment: Cytotoxicity against human MCF7 cells by MTT assay
Lewis lung carcinoma = experiment: Cytotoxicity against mouse LLC by MTT assay

SMILES | Activity (HL-60) | Activity (MCF7) | Activity (Lewis lung carcinoma) | IC50 (HL-60)
C[C@@]12[C@@H](OC(=O)c3cccnc3)[C@H](OC(=O)c3ccccc3)[C@](C)(O)[C@](C)(/C=C/C3=CC(=O)OC3)[C@H]1CC=C[C@]2(C)O | inactive | inactive | inactive | –
CC(=O)O[C@@H](CC1=CC(=O)OC1)[C@]1(C)[C@H]2CCC=C(C)[C@]2(C)[C@@H](OC(=O)c2cccnc2)[C@H](OC(=O)c2ccccc2)[C@]1(C)O [BARBATELLARINES B] | – | – | – | 41.4 µM
COc1cccc2c1C(=O)c1c(O)c3c(c(O)c1C2=O)C[C@@](O)(C(=O)CO)C[C@@H]3O[C@H]1C[C@H](N)[C@H](O)[C@H](C)O1 [DOXORUBICIN HYDROCHLORIDE] | – | – | – | 0.18 µM
